ChEMBL document CHEMBL1629674, “Surveillance of carbapenem-resistant Pseudomonas aeruginosa isolates from Puerto Rican Medical Center Hospitals: dissemination of KPC and IMP-18 beta-lactamases” (2009)
Values after ≈ are worked out from the molar mass of the structure shown.

What was measured:
Pseudomonas aeruginosa [1] = assay: Antimicrobial activity against Pseudomonas aeruginosa PS17B with PFGE phenotype 11D expressing beta-lactamase KPC-2 obtained from blood of ICU patient by agar dilution method; assay type: functional
Pseudomonas aeruginosa [2] = assay: Antimicrobial activity against Pseudomonas aeruginosa PS31 with PFGE phenotype 11B obtained from skin of patient by agar dilution method; assay type: functional
Pseudomonas aeruginosa [3] = assay: Antimicrobial activity against Pseudomonas aeruginosa PS40 with PFGE phenotype 5 expressing beta-lactamase KPC-2, OXA-2 obtained from urine of patient by agar dilution method; assay type: functional
Pseudomonas aeruginosa [4] = assay: Antimicrobial activity against Pseudomonas aeruginosa PS36 with PFGE phenotype 11B obtained from urine of patient by agar dilution method; assay type: functional
Pseudomonas aeruginosa [5] = assay: Antimicrobial activity against Pseudomonas aeruginosa PS39 with PFGE phenotype 8 expressing beta-lactamase IMP-18 obtained from urine of patient by agar dilution method; assay type: functional
Pseudomonas aeruginosa [6] = assay: Antimicrobial activity against Pseudomonas aeruginosa PS2 with PFGE phenotype 10B obtained from urine of ICU patient by agar dilution method; assay type: functional
Pseudomonas aeruginosa [7] = assay: Antimicrobial activity against Pseudomonas aeruginosa PS19A with PFGE phenotype 11C obtained from urine of patient by agar dilution method; assay type: functional
Pseudomonas aeruginosa [8] = assay: Antimicrobial activity against Pseudomonas aeruginosa PS20A with PFGE phenotype 11D obtained from skin of patient by agar dilution method; assay type: functional
Pseudomonas aeruginosa [9] = assay: Antimicrobial activity against Pseudomonas aeruginosa PS35 with PFGE phenotype 11A obtained from urine of patient by agar dilution method; assay type: functional
Pseudomonas aeruginosa [10] = assay: Antimicrobial activity against Pseudomonas aeruginosa PS41 with PFGE phenotype 11D obtained from urine of patient by agar dilution method; assay type: functional
Pseudomonas aeruginosa [11] = assay: Antimicrobial activity against Pseudomonas aeruginosa PS4 with PFGE phenotype 9B expressing beta-lactamase IMP-18 obtained from sputum of patient by agar dilution method; assay type: functional
Pseudomonas aeruginosa [12] = assay: Antimicrobial activity against Pseudomonas aeruginosa PS22 with PFGE phenotype 3A obtained from urine of patient by agar dilution method; assay type: functional
Pseudomonas aeruginosa [13] = assay: Antimicrobial activity against Pseudomonas aeruginosa PS7A with PFGE phenotype 11D obtained from urine of ICU patient by agar dilution method; assay type: functional
Pseudomonas aeruginosa [14] = assay: Antimicrobial activity against OprD overproducing Pseudomonas aeruginosa PAO1 expressing mexA and oprD by agar dilution method; assay type: functional
Pseudomonas aeruginosa [15] = assay: Antimicrobial activity against Pseudomonas aeruginosa PS28 with PFGE phenotype 6 expressing beta-lactamase KPC-5 obtained from skin of patient by agar dilution method; assay type: functional
Pseudomonas aeruginosa [16] = assay: Antimicrobial activity against Pseudomonas aeruginosa PS5 with PFGE phenotype 7A expressing beta-lactamase KPC-2 obtained from sputum of ICU patient by agar dilution method; assay type: functional
Pseudomonas aeruginosa [17] = assay: Antimicrobial activity against Pseudomonas aeruginosa PS25 with PFGE phenotype 1A obtained from sputum of patient by agar dilution method; assay type: functional
Pseudomonas aeruginosa [18] = assay: Antimicrobial activity against Pseudomonas aeruginosa PS23 with PFGE phenotype 4A expressing beta-lactamase KPC-2 obtained from blood of patient by agar dilution method; assay type: functional
Pseudomonas aeruginosa [19] = assay: Antimicrobial activity against Pseudomonas aeruginosa PS29 with PFGE phenotype 11D obtained from sputum of patient by agar dilution method; assay type: functional
Pseudomonas aeruginosa [20] = assay: Antimicrobial activity against Pseudomonas aeruginosa PS44 with PFGE phenotype 13 expressing beta-lactamase IMP-18 obtained from blood of patient by agar dilution method; assay type: functional
Pseudomonas aeruginosa [21] = assay: Antimicrobial activity against Pseudomonas aeruginosa PS18A with PFGE phenotype 11D obtained from CSF of ICU patient by agar dilution method; assay type: functional
Pseudomonas aeruginosa [22] = assay: Antimicrobial activity against Pseudomonas aeruginosa PS21 with PFGE phenotype 11F obtained from skin of patient by agar dilution method; assay type: functional
Pseudomonas aeruginosa [23] = assay: Antimicrobial activity against Pseudomonas aeruginosa PS9 with PFGE phenotype 3B obtained from sputum of patient by agar dilution method; assay type: functional
Pseudomonas aeruginosa [24] = assay: Antimicrobial activity against Pseudomonas aeruginosa PS14 with PFGE phenotype 10C obtained from sputum of ICU patient by agar dilution method; assay type: functional
Pseudomonas aeruginosa [25] = assay: Antimicrobial activity against Pseudomonas aeruginosa PS10 with PFGE phenotype 1A expressing beta-lactamase KPC-2 obtained from blood of patient by agar dilution method; assay type: functional
Pseudomonas aeruginosa [26] = assay: Antimicrobial activity against Pseudomonas aeruginosa PS6A with PFGE phenotype 11A obtained from sputum of ICU patient by agar dilution method; assay type: functional
Pseudomonas aeruginosa [27] = assay: Antimicrobial activity against Pseudomonas aeruginosa PS3 with PFGE phenotype 12 obtained from sputum of ICU patient by agar dilution method; assay type: functional
Pseudomonas aeruginosa [28] = assay: Antimicrobial activity against Pseudomonas aeruginosa PS15A with PFGE phenotype 10A obtained from blood of patient by agar dilution method; assay type: functional
Pseudomonas aeruginosa [29] = assay: Antimicrobial activity against Pseudomonas aeruginosa PS37 with PFGE phenotype 11D obtained from sputum of patient by agar dilution method; assay type: functional
Pseudomonas aeruginosa [30] = assay: Antimicrobial activity against Pseudomonas aeruginosa PS43 with PFGE phenotype 2 expressing beta-lactamase KPC-2, OXA-2 obtained from skin of ICU patient by agar dilution method; assay type: functional
Pseudomonas aeruginosa [31] = assay: Antimicrobial activity against Pseudomonas aeruginosa PS34 with PFGE phenotype 4A obtained from blood of ICU patient by agar dilution method; assay type: functional
Pseudomonas aeruginosa [32] = assay: Antimicrobial activity against Pseudomonas aeruginosa PS11A with PFGE phenotype 7A obtained from sputum of ICU patient by agar dilution method; assay type: functional
Pseudomonas aeruginosa [33] = assay: Antimicrobial activity against Pseudomonas aeruginosa PS13 with PFGE phenotype 11E obtained from sputum of ICU patient by agar dilution method; assay type: functional
Pseudomonas aeruginosa [34] = assay: Antimicrobial activity against Pseudomonas aeruginosa PS26 with PFGE phenotype 3A expressing beta-lactamase OXA-2 obtained from sputum of ICU patient by agar dilution method; assay type: functional
Pseudomonas aeruginosa [35] = assay: Antimicrobial activity against Pseudomonas aeruginosa PS30 with PFGE phenotype 11D obtained from sputum of patient by agar dilution method; assay type: functional
Pseudomonas aeruginosa [36] = assay: Antimicrobial activity against Pseudomonas aeruginosa PS1 with PFGE phenotype 9C negative for blaIMP, blaVIM and blaKPC obtained from sputum of patient by agar dilution method
Pseudomonas aeruginosa [37] = assay: Antimicrobial activity against Pseudomonas aeruginosa PS33 with PFGE phenotype 9A obtained from blood of patient by agar dilution method; assay type: functional
Pseudomonas aeruginosa [38] = assay: Antimicrobial activity against Pseudomonas aeruginosa PS12 with PFGE phenotype 7B obtained from sputum of patient by agar dilution method; assay type: functional

Compound	MIC (Pseudomonas aeruginosa [1]) [µg/mL]	MIC (Pseudomonas aeruginosa [2]) [µg/mL]	MIC (Pseudomonas aeruginosa [3]) [µg/mL]	MIC (Pseudomonas aeruginosa [4]) [µg/mL]	MIC (Pseudomonas aeruginosa [5]) [µg/mL]	MIC (Pseudomonas aeruginosa [6]) [µg/mL]	MIC (Pseudomonas aeruginosa [7]) [µg/mL]	MIC (Pseudomonas aeruginosa [8]) [µg/mL]	MIC (Pseudomonas aeruginosa [12]) [µg/mL]	MIC (Pseudomonas aeruginosa [14]) [µg/mL]	MIC (Pseudomonas aeruginosa [20]) [µg/mL]	MIC (Pseudomonas aeruginosa [23]) [µg/mL]	MIC (Pseudomonas aeruginosa [24]) [µg/mL]	MIC (Pseudomonas aeruginosa [27]) [µg/mL]	MIC (Pseudomonas aeruginosa [28]) [µg/mL]	MIC (Pseudomonas aeruginosa [30]) [µg/mL]	MIC (Pseudomonas aeruginosa [34]) [µg/mL]	MIC (Pseudomonas aeruginosa [36]) [µg/mL]	MIC (Pseudomonas aeruginosa [37]) [µg/mL]	MIC (Pseudomonas aeruginosa [38]) [µg/mL]	also measured
CC(C)(O/N=C(\C(=O)N[C@@H]1C(=O)N2C(C(=O)[O-])=C(C[n+]3ccccc3)CS[C@H]12)c1csc(N)n1)C(=O)O [CEFTAZIDIME]	64 (≈ 117 µM)	64 (≈ 117 µM)	32 (≈ 58.5 µM)	64 (≈ 117 µM)	> 128	128 (≈ 234 µM)	64 (≈ 117 µM)	64 (≈ 117 µM)	16 (≈ 29.3 µM)	1 (≈ 1.83 µM)	> 128	8 (≈ 14.6 µM)	64 (≈ 117 µM)	4 (≈ 7.32 µM)	128 (≈ 234 µM)	16 (≈ 29.3 µM)	8 (≈ 14.6 µM)	2 (≈ 3.66 µM)	> 128	64 (≈ 117 µM)	MIC (Pseudomonas aeruginosa [9]): 64 µg/mL (≈ 117 µM); MIC (Pseudomonas aeruginosa [10]): 64 µg/mL (≈ 117 µM); MIC (Pseudomonas aeruginosa [11]): > 128 µg/mL; MIC (Pseudomonas aeruginosa [13]): 64 µg/mL (≈ 117 µM); MIC (Pseudomonas aeruginosa [15]): 128 µg/mL (≈ 234 µM); MIC (Pseudomonas aeruginosa [16]): 64 µg/mL (≈ 117 µM); MIC (Pseudomonas aeruginosa [17]): 64 µg/mL (≈ 117 µM); MIC (Pseudomonas aeruginosa [18]): 128 µg/mL (≈ 234 µM); MIC (Pseudomonas aeruginosa [19]): 64 µg/mL (≈ 117 µM); MIC (Pseudomonas aeruginosa [21]): 32 µg/mL (≈ 58.5 µM); MIC (Pseudomonas aeruginosa [22]): 64 µg/mL (≈ 117 µM); MIC (Pseudomonas aeruginosa [25]): 64 µg/mL (≈ 117 µM); MIC (Pseudomonas aeruginosa [26]): 32 µg/mL (≈ 58.5 µM); MIC (Pseudomonas aeruginosa [29]): 64 µg/mL (≈ 117 µM); MIC (Pseudomonas aeruginosa [31]): 64 µg/mL (≈ 117 µM); MIC (Pseudomonas aeruginosa [32]): 32 µg/mL (≈ 58.5 µM); MIC (Pseudomonas aeruginosa [33]): 64 µg/mL (≈ 117 µM); MIC (Pseudomonas aeruginosa [35]): 64 µg/mL (≈ 117 µM)
C[C@@H](O)[C@H]1C(=O)N2C(C(=O)O)=C(SCCNC=N)C[C@H]12 [IMIPENEM ANHYDROUS]	> 64	> 64	> 64	> 64	> 64	64 (≈ 214 µM)	> 64	> 64	8 (≈ 26.7 µM)	1 (≈ 3.34 µM)	64 (≈ 214 µM)	8 (≈ 26.7 µM)	64 (≈ 214 µM)	16 (≈ 53.4 µM)	32 (≈ 107 µM)	16 (≈ 53.4 µM)	8 (≈ 26.7 µM)	16 (≈ 53.4 µM)	64 (≈ 214 µM)	> 64	MIC (Pseudomonas aeruginosa [9]): > 64 µg/mL; MIC (Pseudomonas aeruginosa [10]): > 64 µg/mL; MIC (Pseudomonas aeruginosa [11]): > 64 µg/mL; MIC (Pseudomonas aeruginosa [13]): > 64 µg/mL; MIC (Pseudomonas aeruginosa [15]): > 64 µg/mL; MIC (Pseudomonas aeruginosa [16]): > 64 µg/mL; MIC (Pseudomonas aeruginosa [17]): > 64 µg/mL; MIC (Pseudomonas aeruginosa [18]): > 64 µg/mL; MIC (Pseudomonas aeruginosa [19]): > 64 µg/mL; MIC (Pseudomonas aeruginosa [21]): > 64 µg/mL; MIC (Pseudomonas aeruginosa [22]): > 64 µg/mL; MIC (Pseudomonas aeruginosa [25]): > 64 µg/mL; MIC (Pseudomonas aeruginosa [26]): > 64 µg/mL; MIC (Pseudomonas aeruginosa [29]): > 64 µg/mL; MIC (Pseudomonas aeruginosa [31]): > 64 µg/mL; MIC (Pseudomonas aeruginosa [32]): > 64 µg/mL; MIC (Pseudomonas aeruginosa [33]): > 64 µg/mL; MIC (Pseudomonas aeruginosa [35]): > 64 µg/mL
C[C@@H](O)[C@H]1C(=O)N2C(C(=O)O)=C(S[C@@H]3CN[C@H](C(=O)N(C)C)C3)[C@H](C)[C@H]12 [MEROPENEM]	–	–	–	–	–	16 (≈ 41.7 µM)	–	–	16 (≈ 41.7 µM)	0.5 (≈ 1.3 µM)	32 (≈ 83.4 µM)	16 (≈ 41.7 µM)	16 (≈ 41.7 µM)	8 (≈ 20.9 µM)	16 (≈ 41.7 µM)	32 (≈ 83.4 µM)	16 (≈ 41.7 µM)	8 (≈ 20.9 µM)	32 (≈ 83.4 µM)	32 (≈ 83.4 µM)	–
